Results reported in paper PMC12682947, “Identification of New KCNT1‐Epilepsy Drugs by In Silico, Cell, and Drosophila Modeling” (Annals of Neurology, 2025).
Counter-ions that a name gives are not always drawn.

Target: T1, R398Q mutant KCNT1 channels (Homo sapiens, UniProt Q5JUK3, R379Q)
T1 construct: YFP-6His; expressed in transfected cells; host or cells: HEK293T
T1 sequence (Q5JUK3 1-1235 isoform Q5JUK3-3 R398Q): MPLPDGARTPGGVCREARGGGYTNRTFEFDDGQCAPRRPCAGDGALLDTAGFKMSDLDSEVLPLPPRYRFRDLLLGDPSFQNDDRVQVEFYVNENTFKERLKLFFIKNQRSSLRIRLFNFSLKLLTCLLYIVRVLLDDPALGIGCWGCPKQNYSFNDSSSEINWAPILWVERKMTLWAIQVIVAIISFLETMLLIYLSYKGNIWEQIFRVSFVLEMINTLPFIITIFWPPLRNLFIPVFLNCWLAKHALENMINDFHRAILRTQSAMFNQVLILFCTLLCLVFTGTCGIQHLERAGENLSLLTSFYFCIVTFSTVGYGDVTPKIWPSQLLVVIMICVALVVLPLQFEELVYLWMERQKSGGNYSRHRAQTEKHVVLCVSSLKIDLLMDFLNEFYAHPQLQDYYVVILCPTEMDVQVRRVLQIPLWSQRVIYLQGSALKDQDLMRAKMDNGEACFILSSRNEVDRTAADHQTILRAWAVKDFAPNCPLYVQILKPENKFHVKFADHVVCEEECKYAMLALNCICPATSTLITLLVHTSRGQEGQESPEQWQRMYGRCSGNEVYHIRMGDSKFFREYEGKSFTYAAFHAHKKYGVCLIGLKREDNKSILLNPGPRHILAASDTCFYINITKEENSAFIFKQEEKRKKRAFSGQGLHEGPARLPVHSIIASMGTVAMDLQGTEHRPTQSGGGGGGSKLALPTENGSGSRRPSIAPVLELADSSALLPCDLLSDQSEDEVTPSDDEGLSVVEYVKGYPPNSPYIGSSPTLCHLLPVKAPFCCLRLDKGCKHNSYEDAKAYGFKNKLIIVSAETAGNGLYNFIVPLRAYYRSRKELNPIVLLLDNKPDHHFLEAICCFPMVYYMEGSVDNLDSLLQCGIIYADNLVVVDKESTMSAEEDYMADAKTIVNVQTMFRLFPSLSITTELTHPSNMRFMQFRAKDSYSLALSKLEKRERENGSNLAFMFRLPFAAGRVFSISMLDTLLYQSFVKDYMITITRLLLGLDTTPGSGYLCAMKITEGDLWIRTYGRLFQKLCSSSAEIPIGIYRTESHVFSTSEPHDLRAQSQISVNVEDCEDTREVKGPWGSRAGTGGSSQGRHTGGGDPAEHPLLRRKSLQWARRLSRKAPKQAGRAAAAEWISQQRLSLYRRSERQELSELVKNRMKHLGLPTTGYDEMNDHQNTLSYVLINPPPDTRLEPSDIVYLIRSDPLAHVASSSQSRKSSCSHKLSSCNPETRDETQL
Experiment: Inside-out patch clamp of HEK293T cells expressing R398Q KCNT1
Format: cell-based
Conditions: inside-out patches, mean ± SEM
Experimental: The CHO cells were cultured in Dulbecco's modified Eagle's Medium (ThermoFisher, UK) supplemented with 10% (v/v) fetal bovine serum, 50 U/ml penicillin and 0.05 mg/ml streptomycin, and incubated at 37°C in 5% CO2 atmosphere. For whole cell recording of WT/Y796H KCNT1, CHO cells were transiently co‐transfected with concatemeric WT/Y796H and EYFP, as described previously.[29] For electrophysiological experiments, cells were plated onto borosilicate glass cover slips and used 2 to 4 days later. Human embryonic kidney 293T cells (HEK293T) were cultured in the same manner, but with medium supplemented with 2 mM L‐glutamine, and 1% (v/v) nonessential amino acids. For excised inside‐out recording of homomeric WT or mutant YFP‐tagged KCNT1, HEK293T cells plated on glass cover slips were transfected using Attractene Transfection Reagent (Qiagen, Germany) according to the manufacturer's instructions and used 2 to 3 days later.
Inside‐out patch clamp recordings were made at room temperature (23°C) from transiently transfected HEK293T cells, as described previously.[11] The pipette solution contained, in mM, 140 NaCl, 4 KCl, 2 CaCl2, 2 MgCl2, and 10 HEPES adjusted to pH 7.4 with NaOH. […] KCNT1 currents were recorded using 2 voltage protocols, depending on the number of active channels in the patch before drug application. Macroscopic currents (number of active channels > 15) were recorded in response to 100 ms voltage ramps between −120 and 120 mV applied every 2 seconds from a holding potential of −78 mV. […] With a lower number of active channels in the patch (3–15), current traces were recorded in response to 15‐second voltage steps to −20, 0, and 20 mV from a holding potential of −78 mV. Currents recorded at each voltage and each drug concentration were averaged over the duration of the trace and normalized to the average amplitudes of the corresponding current traces in drug‐free solution. […] Single channel data were analyzed using Ana software developed by Dr Michael Pusch (Istituto di Biofisica, Genova, Italy; http://users.ge.ibf.cnr.it/pusch/programs-mik.htm). […]

Structure (SMILES) | IC50
O=C(OCCN1CCN(c2cccc(C(F)(F)F)c2)CC1)c1ccccc1Nc1ccnc2cc(C(F)(F)F)ccc12 [antrafenine] | 30.7 ± 7.4 nM
CC(C)c1c(C(=O)Nc2ccccc2)c(-c2ccccc2)c(-c2ccc(F)cc2)n1CC[C@@H](O)C[C@@H](O)CC(=O)O [atorvastatin] | 4500 ± 1700 nM
Cc1c(O)cccc1C(=O)N[C@@H](CSc1ccccc1)[C@H](O)CN1C[C@H]2CCCC[C@H]2C[C@H]1C(=O)NC(C)(C)C [nelfinavir mesylate] | 11.2 ± 2.2 nM
